Like-named read-outs stand apart in the source and are kept apart here.
Test system: patients with HD
Text: The mPPT quantifies the patient's performance in physical tasks (Brown 2000). It is a standardized 9-item test (standing static balance, chair rise, lift a book and put it on a shelf, put on and remove a jacket, pick up a penny from floor, turn 360 degrees, 50 feet walk, climb one flight of stairs, climb stairs test (flights up and down)), that measures the patient's performance on functional tasks. Both the speed and accuracy at which the patients complete the items are taken into account during scoring. The maximum score of the test is 36, with higher scores indicating better performance. The Multiple Sclerosis Walking Scale (MSWS-12) was adapted to become a generic measure of walking and mobility and renamed the Walk-12.
The secondary efficacy variable and endpoint, the Modified Physical Performance Test (mPPT), quantifies the patient's performance in physical tasks (Brown 2000). It is a standardized 9-item test that measures the patient's performance on functional tasks. Assistive devices are permitted for the tasks that require a standing position (items 6 to 9). Both the speed and accuracy at which the patients complete the items were taken into account during scoring. The maximum score of the test is 36, with higher scores indicating better performance.

[1] = 45 mg bid, HD1 and HD2 patients, 52 weeks
[2] = 45 mg bid, full analysis set, 26 weeks
[3] = 45 mg bid, full analysis set, 52 weeks
[4] = 45 mg bid, late stage HD patients with BL TFC<7, 52 weeks
[5] = 67.5 mg bid, HD1 and HD2 patients, 52 weeks
[6] = 67.5 mg bid, full analysis set, 26 weeks
[7] = 67.5 mg bid, full analysis set, 52 weeks
[8] = 67.5 mg bid, late stage HD patients with BL TFC<7, 52 weeks
[9] = 90 mg bid, HD1 and HD2 patients, 52 weeks
[10] = 90 mg bid, full analysis set, 26 weeks

## CCCN1CCC(c2cccc(S(C)(=O)=O)c2)CC1 [pridopidine, 4-[3-(methylsulfonyl)phenyl]-1-propyl-piperidine]
[1]
  Change from baseline in mPPT Climb One Flight of Stairs scores, Δ to placebo: 0.27
  Change from baseline in mPPT Climb Stairs (Flights Up and Down) scores, Δ to placebo: −0.01
45 mg bid, HD1 patients, 52 weeks
  Change from baseline in mPPT Climb One Flight of Stairs scores, Δ to placebo: −0.02
45 mg bid, HD2 patients, 52 weeks
  Change from baseline in mPPT Climb One Flight of Stairs scores, Δ to placebo: 0.35
[2]
  Change from baseline in mPPT Climb Stairs (Flights Up and Down) scores, Δ to placebo: −0.03
  Δ to placebo: mPPT 50 Feet Walk scores, change from baseline: −0.02
  Δ to placebo: mPPT Chair Rise scores: 0.05
  Δ to placebo: mPPT Climb One Flight of Stairs scores, change from baseline: 0.08
  Δ to placebo: mPPT Lift a Book and Put it on the Shelf scores, change from baseline: 0.14
  Δ to placebo: mPPT Pick up a Penny from the Floor scores, change from baseline: −0.13
  Δ to placebo: mPPT Put on and Remove a Jacket scores, change from baseline: −0.22
  Δ to placebo: mPPT Turn 360 Degrees scores, change from baseline: 0.12
  Δ to placebo: mPPT standing static balance scores: 0.07
[3]
  Change from baseline in mPPT Climb Stairs (Flights Up and Down) scores, Δ to placebo: 0.17
  Δ to placebo: mPPT 50 Feet Walk scores, change from baseline: −0.03
  Δ to placebo: mPPT Chair Rise scores: −0.05
  Δ to placebo: mPPT Climb One Flight of Stairs scores, change from baseline: 0.26
  Δ to placebo: mPPT Lift a Book and Put it on the Shelf scores, change from baseline: 0.25
  Δ to placebo: mPPT Pick up a Penny from the Floor scores, change from baseline: 0.04
  Δ to placebo: mPPT Put on and Remove a Jacket scores, change from baseline: 0.2
  Δ to placebo: mPPT Turn 360 Degrees scores, change from baseline: −0.12
  Δ to placebo: mPPT standing static balance scores: −0.15
45 mg bid, late stage HD patients with BL TFC 0-6, 52 weeks
  Change from baseline in mPPT Climb One Flight of Stairs scores, Δ to placebo: 0.19
[4]
  Change from baseline in mPPT Climb Stairs (Flights Up and Down) scores, Δ to placebo: 0.72
  Δ to placebo: mPPT Climb One Flight of Stairs scores, change from baseline: 0.19
[5]
  Change from baseline in mPPT Climb One Flight of Stairs scores, Δ to placebo: 0.3
  Change from baseline in mPPT Climb Stairs (Flights Up and Down) scores, Δ to placebo: 0.01
67.5 mg bid, HD1 patients, 52 weeks
  Change from baseline in mPPT Climb One Flight of Stairs scores, Δ to placebo: 0.01
67.5 mg bid, HD2 patients, 52 weeks
  Change from baseline in mPPT Climb One Flight of Stairs scores, Δ to placebo: 0.34
[6]
  Change from baseline in mPPT Climb Stairs (Flights Up and Down) scores, Δ to placebo: −0.14
  Δ to placebo: mPPT 50 Feet Walk scores, change from baseline: 0
  Δ to placebo: mPPT Chair Rise scores: 0.01
  Δ to placebo: mPPT Climb One Flight of Stairs scores, change from baseline: 0.11
  Δ to placebo: mPPT Lift a Book and Put it on the Shelf scores, change from baseline: 0.1
  Δ to placebo: mPPT Pick up a Penny from the Floor scores, change from baseline: 0.14
  Δ to placebo: mPPT Put on and Remove a Jacket scores, change from baseline: 0.17
  Δ to placebo: mPPT Turn 360 Degrees scores, change from baseline: −0.06
  Δ to placebo: mPPT standing static balance scores: −0.2
[7]
  Change from baseline in mPPT Climb Stairs (Flights Up and Down) scores, Δ to placebo: 0.04
  Δ to placebo: mPPT 50 Feet Walk scores, change from baseline: 0.15
  Δ to placebo: mPPT Chair Rise scores: −0.1
  Δ to placebo: mPPT Climb One Flight of Stairs scores, change from baseline: 0.13
  Δ to placebo: mPPT Lift a Book and Put it on the Shelf scores, change from baseline: 0.17
  Δ to placebo: mPPT Pick up a Penny from the Floor scores, change from baseline: 0.09
  Δ to placebo: mPPT Put on and Remove a Jacket scores, change from baseline: 0.21
  Δ to placebo: mPPT Turn 360 Degrees scores, change from baseline: −0.1
  Δ to placebo: mPPT standing static balance scores: −0.19
67.5 mg bid, late stage HD patients with BL TFC 0-6, 52 weeks
  Change from baseline in mPPT Climb One Flight of Stairs scores, Δ to placebo: −0.3
[8]
  Change from baseline in mPPT Climb Stairs (Flights Up and Down) scores, Δ to placebo: 0.16
  Δ to placebo: mPPT Climb One Flight of Stairs scores, change from baseline: −0.3
[9]
  Change from baseline in mPPT Climb One Flight of Stairs scores, Δ to placebo: 0.22
  Change from baseline in mPPT Climb Stairs (Flights Up and Down) scores, Δ to placebo: 0.1
90 mg bid, HD1 patients, 52 weeks
  Change from baseline in mPPT Climb One Flight of Stairs scores, Δ to placebo: −0.06
90 mg bid, HD2 patients, 52 weeks
  Change from baseline in mPPT Climb One Flight of Stairs scores, Δ to placebo: 0.28
[10]
  Change from baseline in mPPT Climb Stairs (Flights Up and Down) scores, Δ to placebo: −0.08
  Δ to placebo: mPPT 50 Feet Walk scores, change from baseline: −0.1
  Δ to placebo: mPPT Chair Rise scores: 0.01
  Δ to placebo: mPPT Climb One Flight of Stairs scores, change from baseline: 0.15
  Δ to placebo: mPPT Lift a Book and Put it on the Shelf scores, change from baseline: 0.04
  Δ to placebo: mPPT Pick up a Penny from the Floor scores, change from baseline: 0.1

— US11207310B2 (PRILENIA NEUROTHERAPEUTICS LTD., priority 2016, dated 2021)
